{
  "source": "patent US7053113B2",
  "about": "“Mannich base prodrugs of 3-(pyrrol-2-yl-methylidene)-2-indolinone derivatives” (Sugen, Inc., priority 2000, dated 2006)",
  "key": {"[1]": {"experiment": "Aqueous solubility of the prodrug compared with the parent compound", "type": "physicochemical", "settings": "compared with parent compound (II)"}, "[2]": {"experiment": "Plasma Stability Test: conversion of prodrug to drug after IV administration to dogs", "type": "in vivo", "settings": "IV at 2 mg/mL, HPLC analysis of blood plasma for 4 hours following dosing", "method": "The prodrug (3Z)-3-[(3,5-dimethyl-1H-pyrrol-2-yl)-methylidene]-1-(1-pyrrolidinylmethyl)-1,3-dihydro-2H-indol-2-one was administered IV at 2 mg/mL to dogs. Levels of both prodrug and drug (3(Z)-3-[(3,5-dimethyl-1H-pyrrol-2-yl)-methylidene]-1,3-dihydro-2H-indol-2-one) were followed by HPLC analysis of blood plasma for 4 hours following dosing."}},
  "data": [
    {"smiles": "Cc1cc(C)c(/C=C2\\C(=O)N(CN3CCCC3)c3ccccc32)[nH]1", "note": "[Example 2, (3Z)-3-[(3,5-dimethyl-1H-pyrrol-2-yl)-methylidene]-1-(1-pyrrolidinylmethyl)-1,3-dihydro-2H-indol-2-one]", "values": [
      {"measurement": "aqueous solubility over the parent compound", "setting": "[1]", "result": "increased aqueous solubility"},
      {"measurement": "prodrug converted into drug (area under the curve of drug concentration vs time)", "setting": "[2]", "result": 80, "unit": "%"}
    ]}
  ]
}
